Source: article PMC6821309, “Optimization of Insect Odorant Receptor Trafficking and Functional Expression Via Transient Transfection in HEK293 Cells” (Chemical Senses, 2019)

Columns and labels:
[1] = molecular target: T1, Or56a/Orco (pDmelOR-R.E.hOr56a; mRho.V5.mER.hOr56a + hOrco) (Drosophila melanogaster, UniProt Q9V8Y7); assay: Fura-2 calcium imaging, automated platform, response normalized to VUAA1; assay type: cell-based; details: agonist; 1 mM CaCl2, pH 7.4; 3-parameter logistic fit; transient HEK293
T1 construct: human codon-optimized Or56a with N-terminal mRho.V5.mER tag; N-terminal myc-tagged codon-optimized Orco, spliced chimeric intron; bidirectional vector, transient HEK293; with Odorant receptor coreceptor
T1 sequence (Q9V8Y7 1-419): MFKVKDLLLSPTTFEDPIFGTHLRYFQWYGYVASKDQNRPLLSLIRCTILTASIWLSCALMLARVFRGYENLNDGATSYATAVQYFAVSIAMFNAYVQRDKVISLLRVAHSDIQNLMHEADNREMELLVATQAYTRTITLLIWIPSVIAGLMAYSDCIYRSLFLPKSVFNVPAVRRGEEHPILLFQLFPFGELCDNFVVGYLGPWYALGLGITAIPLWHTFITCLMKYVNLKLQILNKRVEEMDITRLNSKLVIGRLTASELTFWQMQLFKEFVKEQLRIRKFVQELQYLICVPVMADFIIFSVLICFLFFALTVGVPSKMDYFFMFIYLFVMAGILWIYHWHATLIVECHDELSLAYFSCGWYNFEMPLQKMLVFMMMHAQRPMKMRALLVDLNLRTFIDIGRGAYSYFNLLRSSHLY
T1 sequence (Q9VNB5 1-486 partner): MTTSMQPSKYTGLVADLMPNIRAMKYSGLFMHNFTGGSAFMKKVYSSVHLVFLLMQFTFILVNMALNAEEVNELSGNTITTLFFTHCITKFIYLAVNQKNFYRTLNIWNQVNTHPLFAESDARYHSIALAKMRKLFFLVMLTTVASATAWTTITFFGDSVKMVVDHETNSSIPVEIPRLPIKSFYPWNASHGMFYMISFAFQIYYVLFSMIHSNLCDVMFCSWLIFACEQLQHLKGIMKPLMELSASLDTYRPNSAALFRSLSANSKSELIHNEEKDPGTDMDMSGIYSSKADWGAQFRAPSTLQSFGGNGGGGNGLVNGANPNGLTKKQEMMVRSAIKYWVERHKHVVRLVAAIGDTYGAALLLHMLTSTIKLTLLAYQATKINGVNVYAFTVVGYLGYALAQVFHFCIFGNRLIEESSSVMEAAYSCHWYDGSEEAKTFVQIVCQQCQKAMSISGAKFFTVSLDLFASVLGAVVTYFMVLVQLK
Description: Fura-2 calcium imaging, automated platform, response normalized to VUAA1 on Or56a/Orco (pDmelOR-R.E.hOr56a; mRho.V5.mER.hOr56a + hOrco) | or with pDmelOR-R.E.hOr56a and stimulated with geosmin (e)

[2] = molecular target: T2, Or47a/Orco heteromer (pDmelOR-R.E.hOr47a; mRho.V5.mER.hOr47a + hOrco) (Drosophila melanogaster, UniProt P81921); assay: as above; assay type: cell-based; details: agonist; 1 mM CaCl2, pH 7.4; 3-parameter logistic fit; transient HEK293
T2 construct: N-terminal myc-tagged codon-optimized Orco, spliced chimeric intron; bidirectional vector, transient HEK293; with Odorant receptor coreceptor
T2 sequence (P81921 1-385): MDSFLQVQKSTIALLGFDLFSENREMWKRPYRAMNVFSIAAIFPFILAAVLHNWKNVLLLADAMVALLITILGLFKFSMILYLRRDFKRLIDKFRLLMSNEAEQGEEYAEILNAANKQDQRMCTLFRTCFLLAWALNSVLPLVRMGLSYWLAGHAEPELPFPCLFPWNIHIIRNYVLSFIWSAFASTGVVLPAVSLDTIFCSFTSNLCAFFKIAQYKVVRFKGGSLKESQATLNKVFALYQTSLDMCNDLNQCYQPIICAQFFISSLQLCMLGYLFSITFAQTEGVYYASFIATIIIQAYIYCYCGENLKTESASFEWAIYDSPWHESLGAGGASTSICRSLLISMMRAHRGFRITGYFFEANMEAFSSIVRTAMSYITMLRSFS
T2 sequence (Q9VNB5 1-486 partner): T1 sequence (Q9VNB5 1-486 partner)
Description: Fura-2 calcium imaging, automated platform, response normalized to VUAA1 on Or47a/Orco heteromer (pDmelOR-R.E.hOr47a; mRho.V5.mER.hOr47a + hOrco) | transfected with pDmelOR-R.E.hOr47a and stimulated with pentyl acetate (d)

SMILES: CC1CCCC2(C)CCCCC12O (racemic) [geosmin]
- EC50 [1]: 7.19·10^–7 (3.97 × 10^–7; 1.30 × 10^–6) M

SMILES: CCCCCOC(C)=O [pentyl acetate]
- EC50 [2]: 2.45·10^–5 (1.83 × 10^–5; 3.29 × 10^–5) M
